Values joined by “and” are separate entries in the source; they are usually repeats but may differ in a detail not shown here. Equal entries are not always repeated. Inconclusive results and toxic doses are left out.
Test system: CD2F1 mice, L1210 leukemia ip, survival T/C
Experiment: NCI In Vivo Anticancer Drug Screen. Data for tumor model L1210 Leukemia (intraperitoneal) in CD2F1 (CDF1) mice
Settings: higher = longer survival
Summary of the method: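 Each value reflects a quotient of treated over vehicle control outcomes in mice with a transplanted tumor.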

[1] = endpoint: median survival time, dose: 25.0 mg/kg/injection, schedule: Q01DX009 (ip), vehicle: saline with Tween-80
[2] = endpoint: median survival time, dose: 50.0 mg/kg/injection, schedule: Q01DX009 (ip), vehicle: saline with Tween-80
[3] = endpoint: median survival time, dose: 100.0 mg/kg/injection, schedule: Q01DX009 (ip), vehicle: saline with Tween-80
[4] = endpoint: median survival time, dose: 400.0 mg/kg/injection, schedule: Q01DX009 (ip), vehicle: saline with Tween-80
[5] = endpoint: mean survival time, dose: 100.0 mg/kg/injection, schedule: Q04DX003 (ip), vehicle: saline with Tween-80
[6] = endpoint: mean survival time, dose: 200.0 mg/kg/injection, schedule: Q04DX003 (ip), vehicle: saline with Tween-80
[7] = endpoint: mean survival time, dose: 400.0 mg/kg/injection, schedule: Q04DX003 (ip), vehicle: saline with Tween-80
[8] = endpoint: mean survival time, dose: 100.0 mg/kg/injection, schedule: Q04DX002 (ip), vehicle: saline with Tween-80
[9] = endpoint: mean survival time, dose: 100.0 mg/kg/injection, schedule: Q01DX001 (ip), vehicle: saline
[10] = endpoint: mean survival time, dose: 200.0 mg/kg/injection, schedule: Q01DX001 (ip), vehicle: saline
[11] = endpoint: mean survival time, dose: 100.0 mg/kg/injection, schedule: Q01DX009 (ip), vehicle: saline with Tween-80
[12] = endpoint: mean survival time, dose: 200.0 mg/kg/injection, schedule: Q01DX009 (ip), vehicle: saline with Tween-80
[13] = endpoint: mean survival time, dose: 400.0 mg/kg/injection, schedule: Q01DX009 (ip), vehicle: saline with Tween-80
[14] = endpoint: mean survival time, dose: 400.0 mg/kg/injection, schedule: Q01DX001 (ip), vehicle: saline
[15] = endpoint: mean survival time, dose: 6.25 mg/kg/injection, schedule: Q01DX009 (ip), vehicle: saline with Tween-80
[16] = endpoint: mean survival time, dose: 12.5 mg/kg/injection, schedule: Q01DX009 (ip), vehicle: saline with Tween-80
[17] = endpoint: mean survival time, dose: 25.0 mg/kg/injection, schedule: Q01DX001 (ip), vehicle: saline with Tween-80
[18] = endpoint: mean survival time, dose: 100.0 mg/kg/injection, schedule: Q01DX001 (ip), vehicle: saline with Tween-80

Nc1ccc2ccc(NS(=O)(=O)N3CCCCC3)cc2c1
T/C [1]: 118 % of control and 101 % of control and 106 % of control
T/C [2]: 100 % of control and 109 % of control and 112 % of control
T/C [3]: 114 % of control and 118 % of control and 119 % of control
T/C [4]: 182 % of control

CC(C)(C)c1ccc(S(=O)(=O)CC(=O)O)cc1
T/C (endpoint: mean survival time, dose: 75.0 mg/kg/injection, schedule: Q01DX001 (ip), vehicle: other): 104 % of control
T/C [5]: 104 % of control
T/C (endpoint: mean survival time, dose: 150.0 mg/kg/injection, schedule: Q01DX001 (ip), vehicle: other): 100 % of control
T/C [6]: 102 % of control
T/C (endpoint: mean survival time, dose: 300.0 mg/kg/injection, schedule: Q01DX001 (ip), vehicle: other): 98 % of control
T/C [7]: 104 % of control

CC1CCC2[S][Sn]3([NH]C2C1)[NH]C1CC(C)CCC1[S]3 (stereo not given)
T/C [8]: 106 % of control
T/C (endpoint: mean survival time, dose: 200.0 mg/kg/injection, schedule: Q04DX002 (ip), vehicle: saline with Tween-80): 111 % of control

CCCCOCCSc1ccccc1
T/C [9]: 96 % of control
T/C [10]: 93 % of control

C/C(=N\N(C)C)C(C)(C)C
T/C (endpoint: mean survival time, dose: 75.0 mg/kg/injection, schedule: Q01DX001 (ip), vehicle: saline): 93 % of control
T/C (endpoint: mean survival time, dose: 150.0 mg/kg/injection, schedule: Q01DX001 (ip), vehicle: saline): 100 % of control
T/C (endpoint: mean survival time, dose: 300.0 mg/kg/injection, schedule: Q01DX001 (ip), vehicle: saline): 108 % of control

COC(=O)c1cccc(COc2ccc([N+](=O)[O-])cc2Cl)c1
T/C [11]: 98 % of control
T/C [5]: 101 % of control
T/C [12]: 96 % of control
T/C [6]: 100 % of control
T/C [13]: 95 % of control
T/C [7]: 100 % of control

COc1ccc(OC)c(NC(=O)Nc2cc(Cl)c(OC)cc2OC)c1
T/C [11]: 87 % of control
T/C (endpoint: mean survival time, dose: 178.0 mg/kg/injection, schedule: Q01DX009 (ip), vehicle: saline with Tween-80): 97 % of control
T/C [12]: 103 % of control
T/C (endpoint: mean survival time, dose: 266.0 mg/kg/injection, schedule: Q01DX009 (ip), vehicle: saline with Tween-80): 95 % of control
T/C (endpoint: mean survival time, dose: 600.0 mg/kg/injection, schedule: Q01DX009 (ip), vehicle: saline with Tween-80): 95 % of control

CCCc1nc2ccccc2c(=O)n1/N=C/c1ccsc1
T/C (endpoint: mean survival time, dose: 100.0 mg/kg/injection, schedule: Q01DX009 (ip), vehicle: saline sonified): 100 % of control
T/C (endpoint: mean survival time, dose: 200.0 mg/kg/injection, schedule: Q01DX009 (ip), vehicle: saline sonified): 102 % of control
T/C (endpoint: mean survival time, dose: 400.0 mg/kg/injection, schedule: Q01DX009 (ip), vehicle: saline sonified): 93 % of control

O=C(C[n+]1ccccc1)c1ccccc1
T/C (endpoint: mean survival time, dose: 25.0 mg/kg/injection, schedule: Q01DX001 (ip), vehicle: saline): 102 % of control
T/C (endpoint: mean survival time, dose: 50.0 mg/kg/injection, schedule: Q01DX001 (ip), vehicle: saline): 106 % of control
T/C [9]: 96 % of control and 97 % of control
T/C [8]: 96 % of control

C#CCNC1=C(C)C(=O)C2=C(C1=O)[C@H](COC(N)=O)[C@]1(OC)[C@H]3[C@@H](CN21)N3C (stereo not given in full)
T/C (endpoint: mean survival time, dose: 3.0 mg/kg/injection, schedule: Q01DX001 (ip), vehicle: distilled water + Tween-80): 97 % of control
T/C (endpoint: mean survival time, dose: 6.0 mg/kg/injection, schedule: Q01DX001 (ip), vehicle: distilled water + Tween-80): 95 % of control
T/C (endpoint: mean survival time, dose: 12.0 mg/kg/injection, schedule: Q01DX001 (ip), vehicle: distilled water + Tween-80): 101 % of control
T/C (endpoint: mean survival time, dose: 24.0 mg/kg/injection, schedule: Q01DX001 (ip), vehicle: distilled water + Tween-80): 110 % of control
T/C (endpoint: mean survival time, dose: 48.0 mg/kg/injection, schedule: Q01DX001 (ip), vehicle: distilled water + Tween-80): 118 % of control

CCc1ccc(C(C)(C)C)cc1
T/C [5]: 99 % of control
T/C [6]: 105 % of control

Oc1ccccc1NC(=S)Nc1ccccc1
T/C [9]: 102 % of control
T/C [10]: 98 % of control
T/C [14]: 100 % of control

CC1(CC#N)CO1 (stereo not given)
T/C [5]: 96 % of control
T/C [6]: 96 % of control
T/C [7]: 96 % of control

COc1cccc2c1C(=O)c1c(O)c3c(c(O)c1C2=O)CC(O)(/C(C)=N/NC(=O)CCCCC(=O)N/N=C(\C)C1(O)Cc2c(O)c4c(c(O)c2C(OC2CC(N)C(O)C(C)O2)C1)C(=O)c1c(OC)cccc1C4=O)CC3OC1CC(N)C(O)C(C)O1 (stereo not given)
T/C (endpoint: median survival time, dose: 1.5 mg/kg/injection, schedule: Q01DX009 (ip), vehicle: water): 116 % of control and 123 % of control
T/C (endpoint: median survival time, dose: 3.0 mg/kg/injection, schedule: Q01DX009 (ip), vehicle: water): 121 % of control
T/C (endpoint: median survival time, dose: 6.25 mg/kg/injection, schedule: Q01DX009 (ip), vehicle: water): 153 % of control
T/C (endpoint: median survival time, dose: 12.5 mg/kg/injection, schedule: Q01DX009 (ip), vehicle: water): 108 % of control
T/C (endpoint: median survival time, dose: 24.0 mg/kg/injection, schedule: Q01DX009 (ip), vehicle: water): 97 % of control
T/C (endpoint: median survival time, dose: 25.0 mg/kg/injection, schedule: Q01DX009 (ip), vehicle: water): 87 % of control

CC(C)c1ccc2c(c1)CCC1C(C)(CN)CCCC21C (stereo not given) (tested in a mixture with another compound)
T/C (endpoint: mean survival time, dose: 6.25 mg/kg/injection, schedule: Q01DX001 (ip), vehicle: saline with Tween-80): 91 % of control
T/C [15]: 101 % of control
T/C (endpoint: mean survival time, dose: 12.5 mg/kg/injection, schedule: Q01DX001 (ip), vehicle: saline with Tween-80): 96 % of control
T/C [16]: 101 % of control
T/C [17]: 87 % of control
T/C (endpoint: mean survival time, dose: 25.0 mg/kg/injection, schedule: Q01DX009 (ip), vehicle: saline with Tween-80): 101 % of control

COC(=O)c1cccc(C)n1
T/C [11]: 108 % of control
T/C [12]: 94 % of control
T/C [13]: 94 % of control

CC(=O)c1cc(O)ccc1O
T/C [9]: 101 % of control
T/C [10]: 98 % of control
T/C [14]: 98 % of control

Cn1c(=O)c2c(n(C)c1=O)n1cnnc1n2C
T/C (endpoint: mean survival time, dose: 12.5 mg/kg/injection, schedule: Q01DX005 (ip), vehicle: distilled water + Tween-80): 95 % of control
T/C (endpoint: mean survival time, dose: 25.0 mg/kg/injection, schedule: Q01DX005 (ip), vehicle: distilled water + Tween-80): 100 % of control
T/C (endpoint: mean survival time, dose: 50.0 mg/kg/injection, schedule: Q01DX005 (ip), vehicle: distilled water + Tween-80): 100 % of control
T/C (endpoint: mean survival time, dose: 100.0 mg/kg/injection, schedule: Q01DX005 (ip), vehicle: distilled water + Tween-80): 100 % of control
T/C (endpoint: mean survival time, dose: 200.0 mg/kg/injection, schedule: Q01DX005 (ip), vehicle: distilled water + Tween-80): 89 % of control

CC(C)C(=O)C1CCCCC1
T/C (endpoint: mean survival time, dose: 50.0 mg/kg/injection, schedule: Q01DX009 (ip), vehicle: saline with Tween-80): 103 % of control
T/C [11]: 95 % of control
T/C [12]: 95 % of control

Nc1ncnc(N)c1NC(=O)c1cccc(OCc2ccccc2)c1
T/C [5]: 100 % of control
T/C [6]: 91 % of control
T/C [7]: 94 % of control

Cc1cc(C)c(/C=N/NC(=O)NN)c(C)c1
T/C [5]: 91 % of control
T/C [6]: 96 % of control
T/C [7]: 88 % of control

Cc1csc2nccc(Cl)c12
T/C [18]: 100 % of control
T/C (endpoint: mean survival time, dose: 200.0 mg/kg/injection, schedule: Q01DX001 (ip), vehicle: saline with Tween-80): 112 % of control
T/C (endpoint: mean survival time, dose: 400.0 mg/kg/injection, schedule: Q01DX001 (ip), vehicle: saline with Tween-80): 97 % of control

OC1CCc2c(Cl)sc(Cl)c21 (stereo not given)
T/C [17]: 92 % of control
T/C (endpoint: mean survival time, dose: 50.0 mg/kg/injection, schedule: Q01DX001 (ip), vehicle: saline with Tween-80): 98 % of control
T/C [18]: 98 % of control

BrC[P+](CBr)(CBr)CBr
T/C [1]: 98 % of control
T/C [2]: 102 % of control
T/C [3]: 102 % of control
T/C (endpoint: median survival time, dose: 200.0 mg/kg/injection, schedule: Q01DX009 (ip), vehicle: saline with Tween-80): 109 % of control
T/C [4]: 96 % of control

Cc1nc(C)c(CCO)c(=O)[nH]1
T/C [5]: 97 % of control
T/C [6]: 101 % of control
T/C [7]: 103 % of control

COC(=O)c1ccccc1Nc1c2ccc(Cl)cc2nc2c1c(C)nn2C
T/C [11]: 96 % of control
T/C [5]: 101 % of control
T/C [12]: 100 % of control
T/C [6]: 95 % of control
T/C [13]: 97 % of control
T/C [7]: 106 % of control

Cc1cc(N(CCOS(C)(=O)=O)CCOS(C)(=O)=O)ccc1C=Nc1ccc(-c2csc(Cc3ccccc3)n2)cc1
T/C [15]: 102 % of control
T/C [16]: 105 % of control

CCOC(=O)CCC(NC(=O)c1ccc(N(C=O)CCOC=O)cc1)C(=O)OCC (stereo not given)
T/C [5]: 97 % of control
T/C [6]: 96 % of control
T/C [7]: 96 % of control

Source: PubChem BioAssay AID256 (DTP/NCI, 2004)
